Activity calls are given as the source filed them. The rule behind the calls is not given here.
Key:
Mus musculus = species on record: Mus musculus; assay: Cytotoxic activity against M-CSF-stimulated macrophages (from male mice); assay type: functional
Ovis aries = species on record: Ovis aries; assay: Ability to hemolyze sheep erythrocytes and induce change in macrophage morphology and DNA fragmentation at a concentration of 10 ug/mL; inactive; assay type: functional

| SMILES | IC50 (Mus musculus) | Hemolysis (Ovis aries) |
| --- | --- | --- |
| COc1ccc(/C=C/C(=O)O[C@H]2[C@@H](O[C@H]3O[C@H](COC(C)=O)[C@H](O)[C@H](O)[C@H]3O)[C@@H](O[C@H]3O[C@H](C)[C@@H](O[C@H]4OC[C@H](O)[C@H](O)[C@H]4O)[C@@H](O)[C@@H]3O)[C@H](OC(=O)[C@]34CCC(C)(C)C[C@H]3C3=CC[C@@H]5[C@@]6(C)C[C@H](O)[C@H](O[C@@H]7O[C@@H](CO)[C@@H](O)[C@H](O)[C@@H]7O)[C@@](C)(C(=O)O)C6CC[C@@]5(C)[C@]3(CO)CC4)O[C@@H]2C)cc1OC (some centres undefined) [SECURIOSIDE A] | < 250 nM | inactive |
| COc1ccc(/C=C/C(=O)O[C@H]2[C@H](O)[C@@H](O[C@H]3O[C@H](C)[C@@H](O[C@H]4OCC(O[C@H]5O[C@H](CO)[C@@H](O)[C@@H](O)[C@H]5O)C(O[C@H]5O[C@H](CO)[C@H](O)[C@@H](O)[C@H]5O)[C@H]4O)[C@@H](O)[C@@H]3O)[C@@H](OC(=O)[C@]34CCC(C)(C)C[C@H]3C3=CC[C@@H]5[C@@]6(C)C[C@H](O)[C@H](O[C@@H]7O[C@@H](CO)[C@@H](O)[C@H](O)[C@@H]7O)[C@@](C)(C(=O)O)C6CC[C@@]5(C)[C@]3(CO)CC4)O[C@@H]2C)cc1OC (some centres undefined) [SECURIOSIDE B] | < 250 nM | inactive |

Source: ChEMBL document CHEMBL1134170, “Securiosides A and B, novel acylated triterpene bisdesmosides with selective cytotoxic activity against M-CSF-stimulated macrophages” (Bioorg Med Chem Lett, 2001)
